Assay results published in US8198285B2, “Pyrazine derivatives” (Astrazeneca AB, priority 2010, dated 2012).
Structures can show the parent of a compound that is named as a salt.

Assays:
PIM3 = PIM3 (Homo sapiens, UniProt Q86V86); assay: Inhibitory activity against PIM3; format: biochemical
[1] = molecular target: CHK2 (checkpoint kinase 2) (Homo sapiens, UniProt O96017); assay: Inhibitory activity against CHK2; format: biochemical
[2] = system: osteoclast-derived tartrate-resistant acid phosphatase form 5b (TRAcP-5b); assay: Bone biomarker evaluation: serum TRAcP-5b assay; format: in vivo, rat; settings: oral once a day, 7 consecutive days, female CRL:CD rats
Experimental: For in vitro osteogenesis, human adipose-derived stem cells (hADSC) (Invitrogen, UK; catalogue number R7788-115) were seeded into 12-well plates at a density of 5000 cells/cm^2 and were cultured in a basal media of phenol red-free Dulbecco's Modified Eagles Medium (DMEM; Sigma-Aldrich, UK; catalogue number D1145) supplemented with 5% fetal bovine serum (FBS, Gibco, UK; catalogue number 10270) and 2 mM GlutaMax® (Gibco; catalogue number 35050). […] The formation of mineralized bone nodules was assessed during the time-course using Alizarin Red S staining. […] The amount of mineralisation was quantified through the extraction of the Alizarin Red S stain from bone nodules using a cetylpyridinium chloride extraction method, previously described (Gregory et al., Analytical Biochemistry, 2004, 329: 77-84; Hwang et al., Stem Cells and Development 17: 963-970, 2008). […] Following incubation, 200 μl aliquots were transferred to 96-well format and the absorbance at 550 nm was determined using a microplate spectrophotometer (SpectraMax Plus, Molecular Devices, USA). Data were expressed as mean absorbance at 550 nm±Standard error of mean (SEM). […] Data are shown as mean absorbance at 550 nm and analysed using one-way ANOVA followed by Tukey's multiple comparison post hoc test: n=9; ***, P<0.001. […]

[3] = system: Female Sprague Dawley rats; assay: Increased bone formation in rats: femur histopathology; format: in vivo; settings: rat, oral
Experimental: For in vitro osteogenesis, human adipose-derived stem cells (hADSC) (Invitrogen, UK; catalogue number R7788-115) were seeded into 12-well plates at a density of 5000 cells/cm^2 and were cultured in a basal media of phenol red-free Dulbecco's Modified Eagles Medium (DMEM; Sigma-Aldrich, UK; catalogue number D1145) supplemented with 5% fetal bovine serum (FBS, Gibco, UK; catalogue number 10270) and 2 mM GlutaMax® (Gibco; catalogue number 35050). […] In osteogenic positive control wells, basal media was replaced with a differentiation media; phenol red-free DMEM supplemented with 5% FBS, 2 mM GlutaMax®, 50 μg/ml L-ascorbic acid (Sigma-Aldrich; Catalogue no. A8960), 5 mM β-glycerophosphate (Calbiochem, UK; catalogue number 35675), and 10 nM dexamethasone (Sigma-Aldrich; catalogue number D4902). The cultures were incubated at 37° C. in 5% CO2 with media and compound was replaced every 3-4 days over a time-course of 24 days. The formation of mineralized bone nodules was assessed during the time-course using Alizarin Red S staining. At numerous times throughout the time-course, cells were fixed with 4% paraformaldehyde (Sigma-Aldrich; catalogue number P6148) for 20 min, followed by three washes with phosphate buffered saline (PBS), without calcium chloride and magnesium chloride, (Sigma-Aldrich; catalogue number D8537), before being stained with 40 mM Alizarin Red S (Sigma-Aldrich; catalogue number A5533) (pH4.2) for 20 min at room temperature. Plates were placed on a rocking platform (50 rpm) during staining After staining, cells were washed three times with PBS, and three times with water. Cells were imaged using a Leica M165FC stereomicroscope and associated Leica Application Suite imaging software (Leica Microsystems, UK). The amount of mineralisation was quantified through the extraction of the Alizarin Red S stain from bone nodules using a cetylpyridinium chloride extraction method, previously described (Gregory et al., Analytical Biochemistry, 2004, 329: 77-84; Hwang et al., Stem Cells and Development 17: 963-970, 2008). Briefly, Alizarin Red S stain was extracted from bone nodules through the addition of 1 ml, to each well, of a cetylpyridium chloride buffer consisting of 10% cetylpyridium chloride (Sigma-Aldrich; catalogue number C0732) in 10 mM Na3PO4 (Sigma-Aldrich; catalogue number 342483) (pH7.0) and incubation for 1 h at 37° C. Following incubation, 200 μl aliquots were transferred to 96-well format and the absorbance at 550 nm was determined using a microplate spectrophotometer (SpectraMax Plus, Molecular Devices, USA). Data were expressed as mean absorbance at 550 nm±Standard error of mean (SEM). Differences between groups were examined for statistical significance using one-way analysis of variance (ANOVA) followed by Tukey's multiple comparison post hoc test. P<0.05 was considered significant. […] Experiments were performed in triplicate. […] Data are shown as mean absorbance at 550 nm and analysed using one-way ANOVA followed by Tukey's multiple comparison post hoc test: n=9; ***, P<0.001. […] Female Sprague Dawley rats (Charles River CRL:CD rats, Deal, Margate, UK) aged between 12 and 16 weeks (230-340 g) were dosed with either compound or vehicle with a 5 mL/kg volume administered by oral gavage using straight steel (75 mm, 16 gauge) oral gavage feeding needles (Vet-Tech Solutions Ltd, Congleton, UK) between 7 and 10 am each day. Compound or vehicle was dosed at various doses (including 2.5, 5, 15 or 50 mg/kg/day freebase doses equivalent to 3, 6, 18 and 59 mg/kg of tri-hydrochloride salt) once a day for seven to fourteen days. In some studies a serum sample was taken prior to treatment to measure baseline serum bone biomarkers following overnight fasting. Blood was sampled from the tail vein and serum prepared by adding the blood to serum gel blood collection tubes (Microvette 500 Z-gel, catalogue number 20.1344, Sarstedt, Leicester, UK) and centrifuging the tubes for at 13000 rpm for 5 min at 4° C. […]

Sequence of CHK2 (checkpoint kinase 2) (O96017 whole entry, species assumed): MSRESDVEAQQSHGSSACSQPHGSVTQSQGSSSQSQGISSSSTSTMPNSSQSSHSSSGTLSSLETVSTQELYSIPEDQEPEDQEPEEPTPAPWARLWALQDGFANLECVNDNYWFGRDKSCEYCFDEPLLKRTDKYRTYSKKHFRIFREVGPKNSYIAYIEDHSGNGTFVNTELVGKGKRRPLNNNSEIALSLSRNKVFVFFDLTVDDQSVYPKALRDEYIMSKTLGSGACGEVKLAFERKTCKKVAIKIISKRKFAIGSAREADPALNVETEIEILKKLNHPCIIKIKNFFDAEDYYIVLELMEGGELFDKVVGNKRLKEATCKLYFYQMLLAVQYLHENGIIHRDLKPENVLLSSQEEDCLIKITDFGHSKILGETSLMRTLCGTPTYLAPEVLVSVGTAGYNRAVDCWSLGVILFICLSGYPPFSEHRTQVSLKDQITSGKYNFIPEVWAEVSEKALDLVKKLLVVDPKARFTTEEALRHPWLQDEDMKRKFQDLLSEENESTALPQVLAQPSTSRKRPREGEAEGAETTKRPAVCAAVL

SMILES: COCCCNCCCc1ccc(-c2cnc(N)c(C(=O)Nc3cccnc3)n2)cc1 [Example 1, 3-Amino-6-(4-{3-[(3-methoxypropyl)amino]propyl}phenyl)-N-pyridin-3-ylpyrazine-2-carboxamide tri-hydrochloride]
- Inhibitory activity against PIM3 (PIM3): inhibitory activity
- Inhibitory activity against CHK2 [1]: inhibitory activity
- Serum TRAcP-5b levels (marker of bone resorption) [2]: reduction in serum TRAcP-5b levels
- Histopathology, morphology in the femur ([3]; 5 mg/kg, 7 or 14 days, vs vehicle): no differences in morphology in the femur
- Focal bone masses in the sub-chondral region ([3]; 15 mg/kg, 14 days): 2 out of 10
- Histopathology, bone formation in femur ([3]; 15 mg/kg, 14 days): evidence of bone formation in both the sub-chondral region and cortical region
- Histopathology, bone marrow ([3]; 50 mg/kg, 7 days): histological evidence of bone marrow cell mobilization and differentiation
- Histopathology, cancellous bone compartment ([3]; 50 mg/kg, 7 days): evidence of increased bone within the cancellous bone compartment
- Histopathology, bone changes in femur ([3]; 50 mg/kg, 14 days): broader range of bone changes suggestive of bone formation
- Histopathology, osteoblast hypertrophy ([3]; 15 and 50 mg/kg, 7 days): evidence of osteoblast hypertrophy
- Histopathology, osteoid and bone in femur ([3]; 15 and 50 mg/kg, 7 days): dose related changes of increased osteoid and bone in both the sub-chondral region and in the cortical bone in the shaft
